Test results as given in patent publication US4619925A, “3-Propenyl cephalosporin derivatives” (priority 1985, dated 1986).
≈ marks a conversion by molar mass, not a printed value.

What was measured:
Format in all cases: cell-based
[1] = system: S. aureus BX-1633-2; assay: MIC, agar dilution technique (Mueller-Hinton Agar); conditions: Staphylococcus aureus, BX16332, read-out: Minimum Inhibitory Concentration
From the text: (§1) Each of these groups of organisms is constituted of five individual strains of microorganism. The Gp-Ia organisms are Gram-positive staphylococci which are sensitive to penicillin. The Gp-Ib organisms are Gram-positive staphylococci which are resistant to penicillin and produce penicillinase. The Gn-Ia organisms are Gram-negative bacteria which are sensitive to ampicillin and cephalothin. The Gn-Ib organisms are Gram-negative bacteria which are resistant to ampicillin and cephalothin.

[2] = system: E coli RGN-823; assay: MIC, agar dilution technique (Mueller-Hinton Agar); conditions: Escherichia coli, RGN823, Gn-Ib, ampicillin and cephalothin resistant, read-out: Minimum Inhibitory Concentration
From the text: as §1

[3] = system: S. aureus A9602; assay: MIC, agar dilution technique (Mueller-Hinton Agar); conditions: Staphylococcus aureus; S. aureus A9602; Gp-Ib, penicillin resistant; read-out: Minimum Inhibitory Concentration
From the text: as §1

[4] = system: S. aureus A9601; assay: MIC, agar dilution technique (Mueller-Hinton Agar); conditions: Staphylococcus aureus, A9601, read-out: Minimum Inhibitory Concentration
From the text: as §1

[5] = system: K. pneumoniae D11; assay: MIC, agar dilution technique (Mueller-Hinton Agar); conditions: Klebsiella pneumoniae, D11, read-out: Minimum Inhibitory Concentration
From the text: as §1

[6] = system: E. coli A20341-1; assay: MIC, agar dilution technique (Mueller-Hinton Agar); conditions: Escherichia coli, A203411, read-out: Minimum Inhibitory Concentration
From the text: as §1

[7] = system: P. mirabilis A9900; assay: MIC, agar dilution technique (Mueller-Hinton Agar); conditions: Proteus mirabilis, A9900, read-out: Minimum Inhibitory Concentration
From the text: as §1

[8] = system: E. coli A15148; assay: MIC, agar dilution technique (Mueller-Hinton Agar); conditions: Escherichia coli; E. coli A15148; Gn-Ib, ampicillin and cephalothin resistant; read-out: Minimum Inhibitory Concentration
From the text: as §1

[9] = system: S. aureus A15092; assay: MIC, agar dilution technique (Mueller-Hinton Agar); conditions: Staphylococcus aureus, Gp-Ib, penicillin resistant, read-out: Minimum Inhibitory Concentration
From the text: as §1

[10] = system: P. mirabilis A9554; assay: MIC, agar dilution technique (Mueller-Hinton Agar); conditions: Proteus mirabilis, A9554, read-out: Minimum Inhibitory Concentration
From the text: as §1

[11] = system: S. aureus No. 193; assay: MIC, agar dilution technique (Mueller-Hinton Agar); conditions: Staphylococcus aureus, Gp-Ib, penicillin resistant, read-out: Minimum Inhibitory Concentration
From the text: as §1

[12] = system: S. aureus A9497; assay: MIC, agar dilution technique (Mueller-Hinton Agar); conditions: Staphylococcus aureus, Gp-Ia, penicillin sensitive, read-out: Minimum Inhibitory Concentration
From the text: as §1

[13] = system: S. aureus Russell; assay: MIC, agar dilution technique (Mueller-Hinton Agar); conditions: Staphylococcus aureus; S. aureus Russell; Gp-Ib, penicillin resistant; read-out: Minimum Inhibitory Concentration
From the text: as §1

[14] = system: E. coli Juhl; assay: MIC, agar dilution technique (Mueller-Hinton Agar); conditions: Escherichia coli, read-out: Minimum Inhibitory Concentration
From the text: as §1

[15] = system: K. pneumoniae A20346; assay: MIC, agar dilution technique (Mueller-Hinton Agar); conditions: Klebsiella pneumoniae, A20346, read-out: Minimum Inhibitory Concentration
From the text: as §1

[16] = system: S. aureus Terajima; assay: MIC, agar dilution technique (Mueller-Hinton Agar); conditions: Staphylococcus aureus, Gp-Ia, penicillin sensitive, read-out: Minimum Inhibitory Concentration
From the text: as §1

[17] = system: E. coli A9660; assay: MIC, agar dilution technique (Mueller-Hinton Agar); conditions: Escherichia coli, A9660, read-out: Minimum Inhibitory Concentration
From the text: as §1

[18] = system: K. pneumoniae A20345; assay: MIC, agar dilution technique (Mueller-Hinton Agar); conditions: Klebsiella pneumoniae, Gn-Ib, ampicillin and cephalothin resistant, read-out: Minimum Inhibitory Concentration
From the text: as §1

[19] = system: S. aureus A9534; assay: MIC, agar dilution technique (Mueller-Hinton Agar); conditions: Staphylococcus aureus, Gp-Ia, penicillin sensitive, read-out: Minimum Inhibitory Concentration
From the text: as §1

[20] = system: S. aureus Smith; assay: MIC, agar dilution technique (Mueller-Hinton Agar); conditions: Staphylococcus aureus, Gp-Ia, penicillin sensitive, read-out: Minimum Inhibitory Concentration
From the text: as §1

[21] = system: H. influenzae A22483; assay: In vitro activity against fastidious bacteria; conditions: Haemophilus influenzae; H. influenzae A22483; ampicillin-sensitive (ABPC-S); read-out: MIC
From the text: (§2) Table 5 contains comparative data for in vitro antibacterial activity against fastidious bacteria.

[22] = system: N. meningitidis A20049; assay: In vitro activity against fastidious bacteria; conditions: Neisseria meningitidis, A20049
From the text: as §2

[23] = system: S. pyogenes A9604; assay: In vitro activity against fastidious bacteria; conditions: Streptococcus pyogenes, A9604
From the text: as §2

[24] = system: H. influenzae A22482; assay: In vitro activity against fastidious bacteria; conditions: Haemophilus influenzae; H. influenzae A22482; ampicillin-sensitive (ABPC-S); read-out: MIC
From the text: as §2

[25] = system: H. influenzae A22491; assay: In vitro activity against fastidious bacteria; conditions: Haemophilus influenzae, ampicillin-resistant (ABPC-R)
From the text: as §2

[26] = system: S. pneumoniae Type III; assay: In vitro activity against fastidious bacteria; conditions: Streptococcus pneumoniae
From the text: as §2

[27] = system: S. pyogenes A20201; assay: In vitro activity against fastidious bacteria; conditions: Streptococcus pyogenes, A20201
From the text: as §2

[28] = system: H. influenzae A9729; assay: In vitro activity against fastidious bacteria; conditions: Haemophilus influenzae; H. influenzae A9729; ampicillin-sensitive (ABPC-S); read-out: MIC
From the text: as §2

[29] = system: S. pyogenes A20065; assay: In vitro activity against fastidious bacteria; conditions: Streptococcus pyogenes, A20065
From the text: as §2

[30] = system: S. pyogenes A15040; assay: In vitro activity against fastidious bacteria; conditions: Streptococcus pyogenes, A15040
From the text: as §2

[31] = system: H. influenzae A22157; assay: In vitro activity against fastidious bacteria; conditions: Haemophilus influenzae, ampicillin-resistant (ABPC-R)
From the text: as §2

[32] = system: S. pneumoniae A15069; assay: In vitro activity against fastidious bacteria; conditions: Streptococcus pneumoniae, A15069
From the text: as §2

[33] = system: H. influenzae A9833; assay: In vitro activity against fastidious bacteria; conditions: Haemophilus influenzae; H. influenzae A9833; ampicillin-sensitive (ABPC-S); read-out: MIC
From the text: as §2

[34] = system: N. meningitidis A20048; assay: In vitro activity against fastidious bacteria; conditions: Neisseria meningitidis, A20048
From the text: as §2

[35] = system: S. pyogenes s-23; assay: In vitro activity against fastidious bacteria; conditions: Streptococcus pyogenes, S23
From the text: as §2

[36] = system: N. meningitidis A21497; assay: In vitro activity against fastidious bacteria; conditions: Neisseria meningitidis, A21497
From the text: as §2

[37] = system: H. influenzae A22481; assay: In vitro activity against fastidious bacteria; conditions: Haemophilus influenzae, ampicillin-resistant (ABPC-R)
From the text: as §2

[38] = system: N. meningitidis A21495; assay: In vitro activity against fastidious bacteria; conditions: Neisseria meningitidis, A21495
From the text: as §2

[39] = system: S. pyogenes Dick; assay: In vitro activity against fastidious bacteria; conditions: Streptococcus pyogenes
From the text: as §2

[40] = system: N. meningitidis A21487; assay: In vitro activity against fastidious bacteria; conditions: Neisseria meningitidis, A21487
From the text: as §2

[41] = system: S. pneumoniae A20759; assay: In vitro activity against fastidious bacteria; conditions: Streptococcus pneumoniae, A20759
From the text: as §2

[42] = system: S. pneumoniae Type I; assay: In vitro activity against fastidious bacteria; conditions: Streptococcus pneumoniae
From the text: as §2

Structure (SMILES): CC1=C(C(=O)O)N2C(=O)[C@@H](NC(=O)[C@H](N)c3ccccc3)[C@H]2SC1 [cephalexin]
- MIC [1]: 6.3 µg/mL (≈ 18.1 µM)
- MIC [2]: 12.5 µg/mL (≈ 36 µM)
- MIC [3]: 3.1 µg/mL (≈ 8.92 µM)
- MIC [4]: 1.6 µg/mL (≈ 4.61 µM)
- MIC [5]: 6.3 µg/mL (≈ 18.1 µM)
- MIC [6]: 6.3 µg/mL (≈ 18.1 µM)
- MIC [7]: 12.5 µg/mL (≈ 36 µM)
- MIC [8]: 100 µg/mL (≈ 288 µM)
- MIC [9]: 6.3 µg/mL (≈ 18.1 µM)
- MIC [10]: 12.5 µg/mL (≈ 36 µM)
- MIC [11]: 6.3 µg/mL (≈ 18.1 µM)
- MIC [12]: 1.6 µg/mL (≈ 4.61 µM)
- MIC [13]: 3.1 µg/mL (≈ 8.92 µM)
- MIC [14]: 6.3 µg/mL (≈ 18.1 µM)
- MIC [15]: 6.3 µg/mL (≈ 18.1 µM)
- MIC [16]: 1.6 µg/mL (≈ 4.61 µM)
- MIC [17]: 6.3 µg/mL (≈ 18.1 µM)
- MIC [18]: 6.3 µg/mL (≈ 18.1 µM)
- MIC [19]: 1.6 µg/mL (≈ 4.61 µM)
- MIC [20]: 1.6 µg/mL (≈ 4.61 µM)
- MIC [21]: 3.1 µg/mL (≈ 8.92 µM)
- MIC [22]: 3.1 µg/mL (≈ 8.92 µM)
- MIC [23]: 0.8 µg/mL (≈ 2.3 µM)
- MIC [24]: 3.1 µg/mL (≈ 8.92 µM)
- MIC [25]: 3.1 µg/mL (≈ 8.92 µM)
- MIC [26]: 3.1 µg/mL (≈ 8.92 µM)
- MIC [27]: 0.8 µg/mL (≈ 2.3 µM)
- MIC [28]: 3.1 µg/mL (≈ 8.92 µM)
- MIC [29]: 0.8 µg/mL (≈ 2.3 µM)
- MIC [30]: 0.8 µg/mL (≈ 2.3 µM)
- MIC [31]: 3.1 µg/mL (≈ 8.92 µM)
- MIC [32]: 3.1 µg/mL (≈ 8.92 µM)
- MIC [33]: 3.1 µg/mL (≈ 8.92 µM)
- MIC [34]: 3.1 µg/mL (≈ 8.92 µM)
- MIC [35]: 0.8 µg/mL (≈ 2.3 µM)
- MIC [36]: 3.1 µg/mL (≈ 8.92 µM)
- MIC [37]: 3.1 µg/mL (≈ 8.92 µM)
- MIC [38]: 3.1 µg/mL (≈ 8.92 µM)
- MIC [39]: 0.8 µg/mL (≈ 2.3 µM)
- MIC [40]: 3.1 µg/mL (≈ 8.92 µM)
- MIC [41]: 3.1 µg/mL (≈ 8.92 µM)
- MIC [42]: 3.1 µg/mL (≈ 8.92 µM)
